According to US7214669B2, “Tetracycline derivatives and methods of use thereof” (Tetragenex Pharmaceuticals, Inc., priority 2001, dated 2007):
Several values for one entry are separate records, joined by “and”; a condition that tells them apart may be missing. Equal values may be shown once. Where a name gives a salt, the structure may show the parent alone.

Key:
Human recombinant MMP1 = target: T1, Human recombinant MMP1 (Homo sapiens, UniProt P03956); assay: MMP1 (Collagenase-1) inhibition, 14C collagen release; type: biochemical; settings: 35° C., 5 hours; read-out: MMP-1 inhibitory activity, IC50
T1 sequence (P03956 100-469): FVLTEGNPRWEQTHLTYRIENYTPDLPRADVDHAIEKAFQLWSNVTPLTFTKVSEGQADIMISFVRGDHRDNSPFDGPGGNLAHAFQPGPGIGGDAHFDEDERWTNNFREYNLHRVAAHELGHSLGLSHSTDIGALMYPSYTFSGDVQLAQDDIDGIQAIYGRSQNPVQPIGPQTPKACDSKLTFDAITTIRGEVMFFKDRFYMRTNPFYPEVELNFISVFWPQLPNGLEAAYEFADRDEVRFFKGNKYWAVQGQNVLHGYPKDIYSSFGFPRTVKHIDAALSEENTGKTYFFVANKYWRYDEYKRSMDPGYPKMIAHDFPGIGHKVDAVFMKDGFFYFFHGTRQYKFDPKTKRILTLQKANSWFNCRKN

MMP2 (Gelatinase A) = target: T2, MMP2 (Gelatinase A) (Homo sapiens, UniProt P08253); assay: MMP2 (Gelatinase A) inhibition, 14C gelatin release; type: biochemical; settings: 37° C., 16 hours; read-out: MMP-2 inhibitory activity, IC50
T2 sequence (P08253 110-660): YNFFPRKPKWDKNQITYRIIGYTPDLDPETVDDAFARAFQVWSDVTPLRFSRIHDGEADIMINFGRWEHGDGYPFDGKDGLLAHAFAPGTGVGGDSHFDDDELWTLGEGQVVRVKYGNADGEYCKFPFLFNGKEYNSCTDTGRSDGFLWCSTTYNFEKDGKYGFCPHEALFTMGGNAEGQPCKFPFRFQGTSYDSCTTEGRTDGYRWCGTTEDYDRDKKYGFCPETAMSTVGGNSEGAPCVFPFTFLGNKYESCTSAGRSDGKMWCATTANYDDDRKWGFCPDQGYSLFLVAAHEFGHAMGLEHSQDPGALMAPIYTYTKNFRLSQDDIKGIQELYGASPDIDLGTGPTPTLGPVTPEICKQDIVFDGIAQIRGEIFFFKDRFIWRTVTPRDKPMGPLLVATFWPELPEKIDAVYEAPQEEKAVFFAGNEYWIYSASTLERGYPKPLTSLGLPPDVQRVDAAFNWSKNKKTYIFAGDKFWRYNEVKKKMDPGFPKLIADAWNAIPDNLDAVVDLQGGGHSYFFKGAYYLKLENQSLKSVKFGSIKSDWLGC

Human recombinant MMP9 = Human recombinant MMP9 (Homo sapiens, UniProt P14780); assay: MMP9 (Gelatinase B) inhibition, 14C gelatin release; type: biochemical; settings: 37° C., 16 hours; read-out: MMP-9 inhibitory activity, IC50
Human recombinant MMP3 = Human recombinant MMP3 (Homo sapiens, UniProt P08254); assay: MMP3 (Stromelysin 1) inhibition, 14C casein release; type: biochemical; settings: 37° C., 16 hours; read-out: MMP-3 inhibitory activity, IC50
[1] = test system: PC-3 ML human prostate cancer cells; assay: Membrane Invasion Culture System (MICS) chemo-invasion assay; type: cell-based; settings: 24 hours, + = increased invasiveness
Text: (§1) Another objective was to analyze the effects of specific, tetracycline derived compounds on the in-vitro chemo-invasive potential of: • C8161 human melanoma cells • MDA-MB-231 human breast cancer cells • PC3 human prostate cancer cells • RPM18226 human myeloma cancer cells • Ark human myeloma cancer cells • Arp-1 human myeloma cancer cells
(§2) The Membrane Invasion Culture System (MICS) in vitro chemo-invasion assay was chosen to measure changes in the invasive potential of specific human cancer cells in response to tetracycline derived compounds. Stock solutions of each compound were hydrated in water containing 2% DMSO and pH 10.0. Upon solubilization, HCl was added to the solution to establish a pH of 7.5–8.0. This solution was then wrapped in foil and kept at 4° C. during the 24 hours of assay. Fresh compound was prepared for each assay. The in vitro chemoinvasion analyses for tumor cell invasiveness are performed using the Membrane Invasion Culture System (MICS) as previously described.
(§3) The MICS system is a thermally treated plastic manifold system consisting of two matched sets of plates containing fourteen wells, 13 mm in diameter. Interposed between these plates was a polycarbonate filter containing 10 μm pores and coated with a defined matrix composed of human laminin/collagen IV/gelatin that formed a 35 μm thick barrier between the top and bottom sections of the wells in MICS. Prior to placing this barrier in place, the lower wells were filled with serum-free RPMI culture medium made 50% in conditioned medium obtained from 2-day-old cultures of human fibroblasts which had been cleared of cells and cellular debris by either centrifugation, or filtering through a 0.45 μm sterile filter. The barrier was then placed on the lower wells and fresh serum-free medium added to the upper wells after assembly of the system. Fifty thousand tumor cells were then added to the wells either in the presence of the compound, or the DMSO vehicle (the controls). Of the 12 assay wells on each manifold, 3 randomized wells acted as controls, 3 wells received 1 μg/ml of compound, 3 received 10 μg/ml and 3 received 25 μg/ml. After 24 hours, cells and media were removed from the lower wells and replaced by phosphate buffered saline plus 2 mM EDTA. This solution was used to remove all cells from the lower well, and this wash was added to the recovered cells plus medium from the same well. These samples were then collected onto a polylysine containing polycarbonate membrane containing 3 μm pores using a Dot-Blot manifold system. These collection filters were then fixed in methanol, and stained using Wright's stain (Leukostat staining kit) in situ. The filters were then mounted on microscope slides with microscope immersion oil (which reduced the light refraction from the pores) and 5 microscopic fields were counted to calculate the number of cells which invaded through the membrane over the 24 hour period. These numbers were then statistically analyzed as discussed below.

[2] = test system: RPMI-8226 human myeloma cancer cells; assay: as above; type: cell-based; settings: 24 hours, + = increased invasiveness
Text: as §1, §2, §3

[3] = test system: C8161 human melanoma cells; assay: as above; type: cell-based; settings: 24 hours, + = increased invasiveness
Text: as §1, §2, §3

[4] = test system: MDA-MB-231 human breast cancer cells; assay: as above; type: cell-based; settings: 24 hours, + = increased invasiveness
Text: as §1, §2, §3

Human recombinant MMP14 = Human recombinant MMP14 (Homo sapiens, UniProt P50281); assay: MMP14 (MTI-MMP) inhibition, 14C collagen release; type: biochemical; settings: 35° C., 15 hours; read-out: MMP-14 inhibitory activity, IC50

Human recombinant MMP9, sequence (P14780 94-707): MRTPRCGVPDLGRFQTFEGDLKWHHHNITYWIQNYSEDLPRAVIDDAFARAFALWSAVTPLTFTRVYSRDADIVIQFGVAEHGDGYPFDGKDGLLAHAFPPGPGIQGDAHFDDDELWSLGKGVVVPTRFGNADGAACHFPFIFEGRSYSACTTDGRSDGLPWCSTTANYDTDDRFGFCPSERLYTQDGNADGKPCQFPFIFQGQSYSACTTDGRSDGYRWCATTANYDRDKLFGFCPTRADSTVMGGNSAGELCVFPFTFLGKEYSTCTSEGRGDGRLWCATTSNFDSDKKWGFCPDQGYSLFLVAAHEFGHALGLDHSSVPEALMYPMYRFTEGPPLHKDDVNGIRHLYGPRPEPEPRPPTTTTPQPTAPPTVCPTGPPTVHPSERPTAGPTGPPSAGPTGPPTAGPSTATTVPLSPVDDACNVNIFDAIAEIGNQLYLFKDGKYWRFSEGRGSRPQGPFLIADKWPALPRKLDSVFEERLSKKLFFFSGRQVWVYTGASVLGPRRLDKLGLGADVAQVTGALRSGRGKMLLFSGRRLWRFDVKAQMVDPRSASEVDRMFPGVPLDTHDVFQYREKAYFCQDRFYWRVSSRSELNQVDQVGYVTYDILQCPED
Human recombinant MMP3, sequence (P08254 100-477): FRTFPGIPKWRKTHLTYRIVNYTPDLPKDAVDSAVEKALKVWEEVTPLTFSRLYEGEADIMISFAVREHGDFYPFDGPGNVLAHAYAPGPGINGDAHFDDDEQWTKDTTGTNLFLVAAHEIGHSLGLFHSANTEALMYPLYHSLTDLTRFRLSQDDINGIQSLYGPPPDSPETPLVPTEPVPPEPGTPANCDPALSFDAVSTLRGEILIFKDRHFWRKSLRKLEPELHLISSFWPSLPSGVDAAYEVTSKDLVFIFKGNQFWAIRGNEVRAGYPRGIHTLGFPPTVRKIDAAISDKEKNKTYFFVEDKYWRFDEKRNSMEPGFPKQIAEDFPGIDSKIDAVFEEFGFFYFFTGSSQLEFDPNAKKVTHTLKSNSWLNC

Structure (SMILES) | IC50 (Human recombinant MMP1) | IC50 (MMP2 (Gelatinase A)) | IC50 (Human recombinant MMP9) | IC50 (Human recombinant MMP3) | IC50 (Human recombinant MMP14) | percent inhibition, C8161 (Melanoma) ([3]; 1 ug/mL) | percent inhibition, C8161 (Melanoma) ([3]; 10 ug/mL) | percent inhibition, C8161 (Melanoma) ([3]; 25 ug/mL) | percent inhibition, MDA-MB-231 (Breast) ([4]; 1 ug/mL) | percent inhibition, MDA-MB-231 (Breast) ([4]; 10 ug/mL) | percent inhibition, MDA-MB-231 (Breast) ([4]; 25 ug/mL) | percent inhibition, PC-3 ML (Prostrate) ([1]; 1 ug/mL) | percent inhibition, PC-3 ML (Prostrate) ([1]; 10 ug/mL) | percent inhibition, PC-3 ML (Prostrate) ([1]; 25 ug/mL) | percent inhibition, RPMI-8226 (Multiple Myeloma) ([2]; 1 ug/mL) | percent inhibition, RPMI-8226 (Multiple Myeloma) ([2]; 10 ug/mL) | percent inhibition, RPMI-8226 (Multiple Myeloma) ([2]; 25 ug/mL) | other results
CN(C)C1C(O)=C(C(N)=O)C(=O)C2(O)C(O)=C3C(=O)c4c(O)ccc(Cl)c4C(C)(O)C3CC12 (stereo not drawn) [Compound 52, 4-Epi-7-Chlorotetracycline hydrochloride] |  |  |  |  |  | 5% | 15% | 30% | 5% | 12% | 52^B percent |  |  |  |  |  |  | percent inhibition, PC-3 ML (Prostrate) ([1]; 1 ug/mL, hydrochloride): 52^B percent and 31^B percent; percent inhibition, PC-3 ML (Prostrate) ([1]; 10 ug/mL, hydrochloride): 68^B percent and 48^B percent; percent inhibition, PC-3 ML (Prostrate) ([1]; 25 ug/mL, hydrochloride): 70^B percent and 63^B percent; percent inhibition, RPMI-8226 (Multiple Myeloma) ([2]; 10 ug/mL, hydrochloride): 26^B percent and 33^B percent; percent inhibition, RPMI-8226 (Multiple Myeloma) ([2]; 25 ug/mL, hydrochloride): 68^B percent and 46^B percent
CC(=O)Nc1cc(N=[N+]=[N-])c(O)c2c1C(C)C1C(=C(O)C3(O)C(=O)C(C(N)=O)=C(O)C(N(C)C)C3C1O)C2=O (stereo not shown) [Compound 42, 7-Acetylamino-9-azido-6-deoxy-5-hydroxy-tetracycline] |  | 606 µM | 405 µM | 1560 µM | 428 µM |  |  |  |  |  |  |  |  |  |  |  |  | 
CN(C)[C@@H]1C(=O)C(C(N)=O)=C(O)[C@@]2(O)C(=O)C3=C(O)c4c(O)cccc4C[C@H]3C[C@@H]12.Cl [Compound 53, 6-Demethyl-6-deoxytetracycline HCl] |  |  |  |  |  | +40^B percent | +158^B percent | 83^B percent | 9% | 49^B percent | 83^B percent | 29^B percent | 21% | 45^B percent | +95^B percent | 18% | 84^B percent | 
CC1c2ccc(-c3ccc(F)cc3)c(O)c2C(=O)C2=C(O)C3(O)C(=O)C(C(N)=O)=C(O)C(N(C)C)C3C(O)C21 (stereo not shown) [Compound 51, 9-(4-fluorophenyl)-6-deoxy-5-hydroxytetracycline] |  |  |  |  |  | +9% | +31^B percent | +122^B percent | +15^B percent | +18% | 25^B percent | +4% | +13% | 4% | 14% | +26^B percent | +2% | 
CC1c2c([N+](=O)[O-])cc(C(C)(C)C)c(O)c2C(=O)C2=C(O)C3(O)C(=O)C(C(N)=O)=C(O)CC3C(O)C21 (stereo not shown) [Compound 40, 7-Nitro-9-tertbutyl-4-dedimethylamino-6-deoxy-5-hydroxy-tetracycline H2SO4] | 560 µM | 362 µM |  | 91 µM | 29 µM | +1% | +5% | +4% | 9% | 15% | 20^B percent | +1% | +7% | +4% | 16% | 11% | 9% | 

The next lines start with results.

IC50 (Human recombinant MMP1) | IC50 (MMP2 (Gelatinase A)) | IC50 (Human recombinant MMP9) | IC50 (Human recombinant MMP3) | IC50 (Human recombinant MMP14) | Structure (SMILES) | percent inhibition, C8161 (Melanoma) ([3]; 1 ug/mL) | percent inhibition, C8161 (Melanoma) ([3]; 10 ug/mL) | percent inhibition, C8161 (Melanoma) ([3]; 25 ug/mL) | percent inhibition, MDA-MB-231 (Breast) ([4]; 1 ug/mL) | percent inhibition, MDA-MB-231 (Breast) ([4]; 10 ug/mL) | percent inhibition, MDA-MB-231 (Breast) ([4]; 25 ug/mL) | percent inhibition, PC-3 ML (Prostrate) ([1]; 1 ug/mL) | percent inhibition, PC-3 ML (Prostrate) ([1]; 10 ug/mL) | percent inhibition, PC-3 ML (Prostrate) ([1]; 25 ug/mL) | percent inhibition, RPMI-8226 (Multiple Myeloma) ([2]; 1 ug/mL) | percent inhibition, RPMI-8226 (Multiple Myeloma) ([2]; 10 ug/mL) | percent inhibition, RPMI-8226 (Multiple Myeloma) ([2]; 25 ug/mL) | other results
384 µM | 2450 µM | 6630 µM | 194 µM |  | CC1c2c(N=[N+]=[N-])cc(C(C)(C)C)c(O)c2C(=O)C2=C(O)C3(O)C(=O)C(C(N)=O)=C(O)C(N(C)C)C3C(O)C21 (stereo not shown) [Compound 45, 7-Azido-9-tertbutyl-6-deoxy-5-hydroxytetracycline H2SO4] |  |  |  |  |  |  |  |  |  |  |  |  | 
1440 µM | 1470 µM | 591 µM | 224 µM |  | CC1c2c(N)cc(C(C)(C)C)c(O)c2C(=O)C2=C(O)C3(O)C(=O)C(C(N)=O)=C(O)C(N(C)C)C3C(O)C21 (stereo not shown) [Compound 44, 7-Amino-9-tertbutyl-6-deoxy-5-hydroxytetracycline H2SO4] |  |  |  |  |  |  |  |  |  |  |  |  | 
279 µM |  |  | > 1000 µM | 386 µM | CC1c2c(N)cc([N+](=O)[O-])c(O)c2C(=O)C2=C(O)C3(O)C(=O)C(C(N)=O)=C(O)C(N(C)C)C3C(O)C21 (stereo not shown) [Compound 14, 7-Amino-6-deoxy-5-hydroxy-9-nitrotetracycline H2SO4] |  |  |  |  |  |  |  |  |  |  |  |  | 
600 µM | 2480 µM | 319 µM | 174 µM |  | CC1c2c([N+]#N)cc(C(C)(C)C)c(O)c2C(=O)C2=C(O)C3(O)C(=O)C(C(N)=O)=C(O)C(N(C)C)C3C(O)C21 (stereo not shown) [Compound 43, 9-tertbutyl-6-deoxy-5-hydroxytetracycline-7-diazonium H2SO4] |  |  |  |  |  |  |  |  |  |  |  |  | 
